Assay results taken from paper PMC3969223, “Characterization of WZ4003 and HTH-01-015 as selective inhibitors of the LKB1-tumour-suppressor-activated NUAK kinases” (Biochemical Journal, 2013).

How the values were obtained:
U2OS cells = test: Cell proliferation assay (CellTiter 96 AQueous); type: cell-based; settings: 10 μM, 5 days; same extent as shRNA-mediated NUAK1 knockdown
Procedure: (§1) Cell proliferation assays were carried out colorimetrically in 96-well plates using the CellTiter 96® AQueous Non-Radioactive Cell Proliferation Assay kit (Promega) following the manufacturer's protocol. Initially, 2000 cells per well were seeded for U2OS cells and 3000 cells per well were seeded for MEFs. The proliferation assays were carried out over 5 days in the presence or absence of 10 μM HTH-01-015 or WZ4003.

[1] = system: MYPT1 Ser445 phosphorylation; test: MYPT1 Ser445 phosphorylation, HEK-293 Flp/In T-Rex overexpressing HA-NUAK1[A195T]; type: cell-based, human; settings: cells expressing drug-resistant NUAK1[A195T]; 30 μM
Procedure: (§2) HEK (human embryonic kidney)-293 and U2OS cells were cultured in DMEM (Dulbecco's modified Eagle's medium) supplemented with 10% FBS, 2 mM glutamine and 1×antibacterial/antimycotic solution. NUAK1^+/+ and NUAK1^−/− MEFs were cultured in DMEM supplemented with 10% (v/v) FBS and 2 mM glutamine, 1×antibacterial/antimycotic solution, 1% (v/v) non-essential amino acids and 1% (v/v) sodium pyruvate. HEK-293 Flp/In T-Rex cell lines were cultured in DMEM supplemented with 10% (v/v) FBS and 2 mM glutamine, 1×antibacterial/antimycotic solution, 100 μg/ml hygromycin and 15 μg/ml blasticidin. Supplementing the culture medium with 0.1 μg/ml doxycycline for 16–24 h induced protein expression in the HEK-293 Flp/In T-Rex cells. Cell counting was carried out using Invitrogen Countess following the manufacturer's protocol. A cell-detachment assay was carried out on HEK-293 cells using PBS-EDTA-based cell dissociation buffer as described previously. An inhibitor dose-dependence assay was carried out by treating the cells with various concentrations of the inhibitors as indicated in the Figure legends. The inhibitors were dissolved in DMSO and the total concentration of DMSO in the culture media never exceeded 1%. Transient transfections of HEK-293 cells were carried out using PEI [24]. Stable transfections were carried out in HEK-293 Flp/In T-Rex cells (Invitrogen) following the manufacturer's protocol. […]

NUAK1+/+ MEFs = test: Wound-healing (migration) assay; type: cell-based, mouse; settings: 10 μM
Procedure: MEFs were split and an approximately equal number of cells were loaded into the left and right chambers of the IBIDI Self-Insertion Inserts (catalogue number 80209). Each insert was placed in one well of a 12-well plate and the cells were seeded with or without treatment with the inhibitors. For the comparison of the migration properties of different MEFs on the same video, a single insert was used and an equal number of MEFs were counted and loaded on either chamber of the same insert. To study the effect of inhibitors on cell migration, wound-healing assays on MEFs were also carried out on separate inserts with or without treatment with a 10 μM concentration of WZ4003 or HTH-01-015. Inhibitors were added to the cells 1 h before the start of the migration assay. The experiments were carried out in triplicate. After overnight incubation at 37°C and 5% CO2, the insert was removed and the migration of cells into the 500 μm gap between the chambers was observed. The wound-gap healing properties of the cells were observed over a period of 15–20 h under a Nikon Eclipse Ti microscope with images taken every 2 min by a Photometrics cascade II CCD (charge-coupled device) camera using Nikon NIS Elements software.

[2] = system: MYPT1 Ser445 phosphorylation; test: MYPT1 Ser445 phosphorylation, HEK-293 Flp/In T-Rex overexpressing wild-type HA-NUAK1; type: cell-based, human; settings: HEK-293 expressing wild-type NUAK1; 3–10 μM
Procedure: as §2

MYPT1 phosphorylation [3] = test: MYPT1 phosphorylation on detachment, MEFs; type: cell-based, mouse; settings: 10 μM, 16 h
Procedure: (§3) Figure 7 NUAK1 inhibition suppresses cell proliferation (A) U2OS cells were incubated with or without 10 μM WZ4003 or 10 μM HTH-01-015 and a cell proliferation assay was carried out over 5 days in triplicate using the CellTiter 96® AQueous Non-Radioactive Cell Proliferation Assay kit (Promega) (as described in the Materials and methods section). U2OS cells in which NUAK1 has been knocked-down using two different shRNA hairpins were used in parallel as controls. The efficiency of the knock down of each shRNA is shown in top panel. SCR, control scrambled shRNA hairpin; shNUAK1 (1), first NUAK1 shRNA hairpin; shNUAK1 (2), second NUAK1 shRNA hairpin. (B) U2OS cells were treated with (+) or without (−) 10 μM WZ4003 or 10 μM HTH-01-015. After 16 h cell media was removed and cells were treated with EDTA-PBS-based cell dissociation buffer supplemented with 10 μM WZ4003, 10 μM HTH-01–015 or DMSO for 20 min. Cell detachment was induced with gentle tapping of the plates followed by gentle centrifugation at 70 g for 3 min. Cells were lysed immediately after removal of the media and immunoblotted for the detection of the indicated antibodies. (C and D) As above, except NUAK1^+/+ and NUAK1^−/− MEFs were used. Similar results were obtained in three separate experiments.

MEFs = test: Cell proliferation assay (CellTiter 96 AQueous); type: cell-based, mouse; settings: 10 μM, 5 days; same extent as NUAK1-knockout
Procedure: as §1

MYPT1 phosphorylation [4] = test: MYPT1 phosphorylation on detachment, U2OS; type: cell-based; settings: 10 μM, 16 h
Procedure: as §3

Compound | Proliferation of U2OS cells (in words) (U2OS cells) | Block of MYPT1 Ser445 phosphorylation (in words) [1] | Cell migration in wound-healing assay (in words) (NUAK1+/+ MEFs) | Suppression of MYPT1 phosphorylation (in words) [2] | Suppression of MYPT1 phosphorylation in MEFs (in words) (MYPT1 phosphorylation [3]) | Proliferation of MEFs (in words) (MEFs) | Suppression of MYPT1 phosphorylation in U2OS cells (in words) (MYPT1 phosphorylation [4])
Cc1nc(Nc2cnn(C3CCNCC3)c2)nc2c1N(C)C(=O)c1cc3ccccc3cc1N2C [HTH-01-015] | suppressed proliferation | failed to block | markedly reduced cell migration | markedly suppressed | to the same extent as NUAK1-knockout | suppressed proliferation | to the same extent as shRNA-mediated NUAK1 knockdown
CCC(=O)Nc1cccc(Oc2nc(Nc3ccc(N4CCN(C)CC4)cc3OC)ncc2Cl)c1 [WZ4003] | suppressed proliferation | failed to block | markedly reduced cell migration | markedly suppressed | to the same extent as NUAK1-knockout | suppressed proliferation | to the same extent as shRNA-mediated NUAK1 knockdown
